{"source": "patent US20250171499A1", "about": "“PHARMACEUTICAL FORMULATIONS AND METHODS FOR THE TREATMENT OF METABOLIC AND LIVER DISORDERS” (Viking Therapeutics, Inc., priority 2022, published 2025)", "key": {"GIP receptor": {"molecular_target": "T1, GIP receptor (Homo sapiens, UniProt P48546)", "T1 sequence (P48546 22-466)": "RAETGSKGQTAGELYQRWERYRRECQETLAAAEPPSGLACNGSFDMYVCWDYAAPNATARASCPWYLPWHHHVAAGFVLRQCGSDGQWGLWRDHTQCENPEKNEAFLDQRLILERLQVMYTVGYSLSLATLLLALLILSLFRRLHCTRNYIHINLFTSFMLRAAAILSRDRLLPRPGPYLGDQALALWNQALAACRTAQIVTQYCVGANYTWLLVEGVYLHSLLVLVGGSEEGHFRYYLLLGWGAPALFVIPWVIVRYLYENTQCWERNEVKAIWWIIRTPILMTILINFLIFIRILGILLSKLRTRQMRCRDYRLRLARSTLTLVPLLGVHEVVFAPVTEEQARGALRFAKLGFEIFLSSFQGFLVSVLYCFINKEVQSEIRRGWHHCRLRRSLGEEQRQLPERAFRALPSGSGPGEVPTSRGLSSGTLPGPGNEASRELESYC", "test": "Binding assay in the presence or absence of 2% human serum albumin, GIP receptor", "details": "IC50 with 2% HSA to IC50 with 0% HSA"}, "GLP-1 receptor": {"molecular_target": "GLP-1 receptor (Homo sapiens, UniProt P43220)", "sequence (P43220 24-463, species assumed)": "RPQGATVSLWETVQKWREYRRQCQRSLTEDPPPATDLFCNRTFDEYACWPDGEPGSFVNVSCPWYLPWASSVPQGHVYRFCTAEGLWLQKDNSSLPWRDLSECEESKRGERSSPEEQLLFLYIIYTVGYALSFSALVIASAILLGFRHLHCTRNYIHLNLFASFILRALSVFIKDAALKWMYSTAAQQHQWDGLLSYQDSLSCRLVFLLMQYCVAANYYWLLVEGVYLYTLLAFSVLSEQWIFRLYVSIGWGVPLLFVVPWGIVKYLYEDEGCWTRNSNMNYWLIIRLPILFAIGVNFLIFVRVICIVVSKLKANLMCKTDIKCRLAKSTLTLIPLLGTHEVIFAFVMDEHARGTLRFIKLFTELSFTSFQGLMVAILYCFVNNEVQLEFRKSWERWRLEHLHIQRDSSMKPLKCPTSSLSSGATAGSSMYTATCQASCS", "details": "IC50 with 2% HSA to IC50 with 0% HSA"}, "[1]": {"test": "Pharmacokinetics study of formulations, subcutaneous dosing", "assay_type": "in vivo", "details": "Formulation 2; SC 0.2 mg/kg; male cynomolgus monkeys", "procedure": "Formulation 1 included the compound in a vehicle of 0.1% bovine serum albumin in phosphate buffered saline solution. […] Samples were obtained at 1, 4, 8, 12, 24, 48, 72, 96, 120, 168, 192, 240 and 336 hours after the single dose was administered."}}}
{"compound": "CC[C@H](C)[C@H](NC(=O)[C@H](CC(C)C)NC(=O)[C@H](Cc1c[nH]c2ccccc12)NC(=O)[C@H](CCC(N)=O)NC(=O)[C@@H](NC(=O)[C@H](Cc1ccccc1)NC(=O)[C@H](C)NC(=O)[C@H](CCCCNC(=O)COCCOCCNC(=O)COCCOCCNC(=O)CC[C@H](NC(=O)CCCCCCCCCCCCCCCCCCP(=O)(O)O)C(=O)O)NC(=O)[C@H](CCC(N)=O)NC(=O)[C@H](C)NC(=O)[C@@H](NC(=O)[C@H](CCCCN)NC(=O)[C@H](CC(=O)O)NC(=O)[C@H](CC(C)C)NC(=O)C(C)(C)NC(=O)[C@@H](NC(=O)[C@H](CO)NC(=O)[C@H](Cc1ccc(O)cc1)NC(=O)[C@H](CC(=O)O)NC(=O)[C@H](CO)NC(=O)[C@@H](NC(=O)[C@H](Cc1ccccc1)NC(=O)[C@@H](NC(=O)CNC(=O)[C@H](CCC(=O)O)NC(=O)C(C)(C)NC(=O)[C@@H](N)Cc1ccc(O)cc1)[C@@H](C)O)[C@@H](C)O)[C@@H](C)CC)[C@@H](C)CC)C(C)C)C(=O)N[C@@H](C)C(=O)NCC(=O)NCC(=O)N1CCC[C@H]1C(=O)N[C@@H](CO)C(=O)N[C@@H](CO)C(=O)NCC(=O)N[C@@H](C)C(=O)N1CCC[C@H]1C(=O)N1CCC[C@H]1C(=O)N1CCC[C@H]1C(=O)N[C@@H](CO)C(N)=O", "note": "[Compound 4]", "values": [{"measurement": "GIP receptor Ratio of HSA:No HSA", "setting": "GIP receptor", "value": 1.25}, {"measurement": "GLP-1 receptor Ratio of HSA:No HSA", "setting": "GLP-1 receptor", "value": 6.42}, {"measurement": "mean half life compared to tirzepatide", "setting": "[1]", "value": "twice as long"}]}
